From patent publication US20260035384A1, “COMPOUND CONTAINING CYCLOHEXYL” (CHIA TAI TIANQING PHARMACEUTICAL GROUP CO., LTD., priority 2022, published 2026)
Changes are numbered by the printed parent chain. Read-outs that look alike come from different tables or passages of the source.

How the values were obtained:
AR in LNCaP cells = target: T1, AR in LNCaP cells (Homo sapiens, UniProt P10275, T878A); experiment: Assay on degradation activity for AR in LNCaP cells (HTRF human androgen receptor detection kit); format: cell-based; settings: 24 h incubation; for DC50: HTRF; for Dmax: maximum degradation rate
T1 construct: Assay on Degradation Activity for AR in LNCaP Cells; endogenous in cells; host or cells: LNCaP cells
T1 sequence (P10275 1-920 T878A): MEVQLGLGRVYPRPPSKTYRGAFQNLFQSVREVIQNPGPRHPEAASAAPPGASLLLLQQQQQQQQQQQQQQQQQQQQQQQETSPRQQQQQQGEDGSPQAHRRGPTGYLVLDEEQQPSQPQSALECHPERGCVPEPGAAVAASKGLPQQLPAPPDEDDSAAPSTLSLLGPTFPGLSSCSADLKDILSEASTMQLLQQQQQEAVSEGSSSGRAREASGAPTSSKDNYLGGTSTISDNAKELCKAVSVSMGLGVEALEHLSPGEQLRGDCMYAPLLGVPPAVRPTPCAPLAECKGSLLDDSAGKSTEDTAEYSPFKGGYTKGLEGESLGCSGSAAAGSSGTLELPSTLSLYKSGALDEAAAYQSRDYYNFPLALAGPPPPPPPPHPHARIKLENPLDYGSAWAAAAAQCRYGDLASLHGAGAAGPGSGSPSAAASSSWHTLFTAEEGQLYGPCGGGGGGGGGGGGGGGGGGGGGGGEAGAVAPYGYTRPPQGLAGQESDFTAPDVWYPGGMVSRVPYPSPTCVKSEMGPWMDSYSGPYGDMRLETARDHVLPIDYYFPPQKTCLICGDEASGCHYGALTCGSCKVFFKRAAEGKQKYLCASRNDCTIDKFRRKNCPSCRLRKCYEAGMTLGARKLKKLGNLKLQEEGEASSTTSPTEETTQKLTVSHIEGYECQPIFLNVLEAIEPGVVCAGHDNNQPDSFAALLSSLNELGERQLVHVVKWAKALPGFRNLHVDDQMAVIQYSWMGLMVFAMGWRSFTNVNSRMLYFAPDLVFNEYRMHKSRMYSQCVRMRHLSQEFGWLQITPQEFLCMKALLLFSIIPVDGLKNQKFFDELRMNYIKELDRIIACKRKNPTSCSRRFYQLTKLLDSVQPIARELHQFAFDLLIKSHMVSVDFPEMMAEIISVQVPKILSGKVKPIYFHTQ
Experimental: (§1) The detection was carried out using the HTRF HUMAN ANDROGEN RECEPTOR DETECTION KIT (cisbio, 64ANDRPEG), 4× Supplemented Lysis buffer was prepared using the Blocking reagent stock solution (100×) and Lysis buffer stock solution (4×), and 1× Supplemented Lysis buffer was prepared using the 4× Supplemented Lysis buffer and ddH2O. Premixed antibody solutions were prepared using Detection buffer, Androgen Receptor Eu Cryptate antibody, and Androgen Receptor d2 antibody.
(§2) LNCaP cells in a good growth state were taken, washed with PBS, digested with pancreatin, and added with 2% CSS—FBS phenol red-free 1640 complete medium to terminate the digestion. The cells were collected by using a centrifuge tube, adjusted to a cell density of 1×10^6 cells/mL, and seeded in a 96-well plate (100 μL/well). The cells were incubated overnight in a cell incubator. Compounds were added using a nanoliter pipettor such that the final concentrations of the compounds were 500 nM-0.488 nM. Two duplicate wells were set for each concentration, and meanwhile, a control was set. After another 24 h of incubation in the cell incubator, the medium was pipetted out, the 1× Supplemented Lysis buffer was added at 40 μL/well to lyse the cells. After the cells were oscillated for 40 min at room temperature, 16 μL of the cell lysate was added to a 384-well plate, the Premixed antibody solutions were added at 4 μL/well, and the mixture was left to stand at 25° C. for 2 h. Fluorescence values were detected at 665 nm/620 nm using an Envision microplate reader, the four-parameter analysis was performed, the dose-response curves were fit, and DC50 (the concentration of the drug when the degradation rate reaches 50%) and Dmax (the maximum degradation rate) were calculated.

LNCaP cells = experiment: Assay on inhibitory activity for LNCaP cell proliferation (CCK-8); format: cell-based; settings: Homo sapiens, 168 h incubation
Experimental: (§3) LNCaP cells in a good growth state were taken, washed with PBS, digested with pancreatin, and added with 2% CSS—FBS phenol red-free 1640 complete medium to terminate the digestion. The cells were collected by using a centrifuge tube, adjusted to a cell density of 1×10^5 cells/mL, and seeded in a 96-well plate (100 μL/well). Meanwhile, compounds were added using a nanoliter pipettor such that the final concentrations of the compounds were 10000 nM-0.61 nM. Two duplicate wells were set for each concentration, and meanwhile, a control was set. After another 168 h of incubation in the cell incubator, the detection reagent CCK-8 (manufacturer: Dojindo, 10 μL/well) was added.

Mouse pharmacokinetics = format: in vivo, ICR mice; settings: ICR, mouse, plasma; for AUC: read-out: AUC
Experimental: ICR mice weighing 18-22 g were randomized into groups of 9 after 3-5 days of acclimatization, and then intragastrically given the test compound solution at a dose of 10 mg/kg and intravenously injected with the test compound solution at a dose of 1 mg/kg.
Blood sampling time points for the intragastrical administration group were 15 min, 0.5 h, 1 h, 2 h, 3 h, 4 h, 6 h, 8 h, 10 h, and 24 h, and blood sampling time points for the intravenous injection administration group were […], 15 min, 0.5 h, 1 h, 2 h, 4 h, 6 h, 8 h, 10 h, and 24 h; blood was collected from the orbit to prepare plasma samples to be tested. 30 μL of each of the plasma samples to be tested and a standard curve sample were taken, and an acetonitrile solution containing an internal standard was added. Supernatants were obtained by protein precipitation, diluted, and then assayed by LC/MS/MS. Pharmacokinetic parameters were fitted using a non-compartmental model (see Table 6).

AR in VCaP cells = target: T2, AR in VCaP cells (Homo sapiens, UniProt P10275); experiment: Assay on degradation activity for AR in VCaP cells (HTRF human androgen receptor detection kit); format: cell-based; settings: 24 h incubation
T2 construct: Assay on Degradation Activity for AR in VCaP Cells; endogenous in cells; host or cells: VCaP cells
T2 sequence (P10275 1-920): T1 sequence (P10275 1-920 T878A) with A878T
Experimental: as §1
as §2, with “VCaP” for “LNCaP”, “DMEM” for “1640”, “µL/well).” for “μL/well).”, “1000 nM-0.977” for “500 nM-0.488”

VCaP cells = experiment: Assay on inhibitory activity for VCaP cell proliferation (CCK-8); format: cell-based; settings: Homo sapiens, 168 h incubation
Experimental: as §3, with “2.1 Assay on inhibitory activity for VCaP cell proliferation VCaP” for “LNCaP”, “5%” for “2%”, “DMEM” for “1640”

[1] = po, 10 mg/kg, Mouse i.g. 10 mpk

| DC50 (AR in LNCaP cells) | Dmax (AR in LNCaP cells) | IC50 (LNCaP cells) | DC50 (AR in VCaP cells) | IC50 (VCaP cells; VCaP, 168 h) | SMILES | also measured |
| --- | --- | --- | --- | --- | --- | --- |
| – | – | – | ≤ 1 nM | – | N#Cc1ccc(O[C@H]2CC[C@H](NC(=O)c3ccc(N4CCC(N5CCC(CN6CCc7ccc8c(C9CCC(=O)NC9=O)noc8c7C6)CC5)CC4)nn3)CC2)cc1Cl (stereo partly shown) [Compound 87] | – |
| – | – | – | ≤ 1 nM | – | N#Cc1ccc(O[C@H]2CC[C@H](NC(=O)c3ccc(N4CCC(N5CCC(CN6Cc7ccc8c(C9CCC(=O)NC9=O)noc8c7C6)CC5)CC4)nn3)CC2)cc1Cl (stereo partly shown) [Compound 86] | – |
| – | – | – | ≤ 1 nM | – | N#Cc1ccc(O[C@H]2CC[C@H](NC(=O)c3ccc(N4CCC(N5CC(CN6Cc7ccc8c(C9CCC(=O)NC9=O)noc8c7C6)C5)CC4)cc3)CC2)cc1Cl (stereo partly shown) [Compound 80] | – |
| – | – | – | ≤ 1 nM | – | N#Cc1ccc(O[C@H]2CC[C@H](NC(=O)c3ccc(N4CCC(N5CC(CN6CCc7ccc8c(C9CCC(=O)NC9=O)noc8c7C6)C5)CC4)cc3)CC2)cc1Cl (stereo partly shown) [Compound 81] | – |

Second part, the compound before the results:

| SMILES | DC50 (AR in LNCaP cells) | Dmax (AR in LNCaP cells) | IC50 (LNCaP cells) | DC50 (AR in VCaP cells) | IC50 (VCaP cells; VCaP, 168 h) | also measured |
| --- | --- | --- | --- | --- | --- | --- |
| N#Cc1ccc(O[C@H]2CC[C@H](NC(=O)c3ccc(N4CCC(CN5CCc6c(ccc7c(C8CCC(=O)NC8=O)noc67)C5)CC4)nn3)CC2)cc1Cl (stereo partly shown) [Compound 19] | ≤ 20 nM | > 80% | < 1000 nM | – | – | clearance (Mouse pharmacokinetics; iv, 1 mg/kg, Mouse i.v. 1 mpk): 5.7 mL/min/kg; half-life (Mouse pharmacokinetics; iv, 1 mg/kg, Mouse i.v. 1 mpk): 444 min; AUC (Mouse pharmacokinetics; iv, 1 mg/kg, Mouse i.v. 1 mpk): 2600 ng·h/mL; half-life (Mouse pharmacokinetics; [1]): 2990 min; bioavailability (Mouse pharmacokinetics; po, 10 mg/kg, Mouse i.g. 10 mpk vs i.v. 1 mpk): 41.6%; AUC (Mouse pharmacokinetics; [1]): 10800 ng·h/mL; Cmax (Mouse pharmacokinetics; po, 10 mg/kg, Mouse i.g. 10 mpk, read-out: Cmax): 562 ng/mL |
| CN(c1ccc(C#N)c(Cl)c1)[C@H]1CC[C@H](NC(=O)c2ccc(N3CCN(CC4Cc5ccc6c(C7CCC(=O)NC7=O)noc6c5C4)CC3)cc2)CC1 (stereo partly shown) [Compound 71] | – | – | – | ≤ 1 nM | – | – |
| N#Cc1ccc(O[C@H]2CC[C@H](NC(=O)c3ccc(N4CCC5(CC4)CC(CN4CCc6ccc7c(C8CCC(=O)NC8=O)noc7c6C4)C5)nn3)CC2)cc1Cl (stereo partly shown) [Compound 35] | ≤ 20 nM | > 80% | < 1000 nM | – | – | IC50 (VCaP cells): < 100 nM |
| N#Cc1ccc(O[C@H]2CC[C@H](NC(=O)c3ccc(N4CCC(CN5CCc6ccc7c(C8CCC(=O)NC8=O)noc7c6CC5)CC4)nn3)CC2)cc1Cl (stereo partly shown) [Compound 20] | ≤ 20 nM | > 80% | < 1000 nM | – | – | – |
| N#Cc1ccc(O[C@H]2CC[C@H](NC(=O)c3ccc(C4CCN(C5CC(n6ncc7c8c(C9CCC(=O)NC9=O)noc8ccc76)C5)CC4)nn3)CC2)cc1Cl (stereo partly shown) [Compound 46] | – | – | < 1000 nM | – | < 10 nM | – |
| N#Cc1ccc(O[C@H]2CC[C@H](NC(=O)c3cnc(N4CCC(CN5CCc6ccc7c(C8CCC(=O)NC8=O)noc7c6CC5)CC4)nc3)CC2)cc1Cl (stereo partly shown) [Compound 122] | ≤ 20 nM | > 80% | < 1000 nM | – | < 100 nM | – |
| N#Cc1ccc(O[C@H]2CC[C@H](NC(=O)c3ncc(N4CCC(CN5CCc6c(ccc7c(C8CCC(=O)NC8=O)noc67)C5)CC4)cn3)CC2)cc1Cl (stereo partly shown) [Compound 146] | – | – | < 1000 nM | – | < 1000 nM | – |
| CN(c1ccc(C#N)c(Cl)c1)[C@H]1CC[C@H](NC(=O)c2cnc(N3CC(CN4CCc5c(ccc6c(C7CCC(=O)NC7=O)noc56)C4)C3)nc2)CC1 (stereo partly shown) [Compound 114] | – | – | < 1000 nM | – | < 100 nM | – |
| N#Cc1ccc(O[C@H]2CC[C@H](NC(=O)c3cnc(N4CCC(CN5CCc6ccc7c(C8CCC(=O)NC8=O)noc7c6C5)CC4)nc3)CC2)cc1Cl (stereo partly shown) [Compound 120] | – | – | < 1000 nM | – | < 1000 nM | – |
